Like-named read-outs stand apart in the source and are kept apart here.
Tests used:
[1] = target: T1, CDK2/CyclinE1 (Homo sapiens, UniProt P24941); test: Assay for inhibition of CDK2/CyclinE1 (Caliper microfluidic kinase assay); assay type: biochemical; settings: read-out: CDK2 IC50
T1 construct: purchased SignalChem C29-18G
Outline: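 Caliper microfluidic mobility-shift assay: 5 nM CDK2/CyclinE1, 100 μM ATP, 5 μM FL-18 peptide (5-FAM-QSPKKG-NH2) in pH 7.5 HEPES buffer with MgCl2, DTT, BSA, Triton X-100. Incubated 3 hours at room temperature, EDTA-stopped; IC50 from 4-parameter sigmoidal fit.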

[2] = tested on: T47D breast cancer cells; test: Anti-proliferation assay in T47D cell (Cyquant, day 6); assay type: cell-based, human; settings: read-out: T47D IC50
Outline: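 Cells were grown in RPMI 1640 with 10% FBS at 37 °C and dosed the day after plating at ten concentrations, 10 μM to 0.51 nM in 3-fold steps. CyQuant fluorescence (ex 485/em 535 nm) was read on day 6. IC50 was fitted from baseline-subtracted viability curves, with the baseline read after overnight culture.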

[3] = target: T2, CDK4/CyclinD1 (Homo sapiens, UniProt P11802); test: Assay for inhibition of CDK4/CyclinD1 (Caliper microfluidic kinase assay); assay type: biochemical
T2 construct: purchased Thermofisher PR8064A
T2 sequence (P11802 whole entry): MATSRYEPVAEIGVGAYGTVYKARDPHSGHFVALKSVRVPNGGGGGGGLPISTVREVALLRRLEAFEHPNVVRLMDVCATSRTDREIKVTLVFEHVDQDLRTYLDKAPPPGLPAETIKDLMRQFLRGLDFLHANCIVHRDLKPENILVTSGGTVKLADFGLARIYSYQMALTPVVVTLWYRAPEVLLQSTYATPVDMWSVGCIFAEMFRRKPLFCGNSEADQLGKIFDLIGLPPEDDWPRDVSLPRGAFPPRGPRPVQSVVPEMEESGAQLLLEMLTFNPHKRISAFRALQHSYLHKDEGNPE
T2 sequence (P24385 whole entry partner): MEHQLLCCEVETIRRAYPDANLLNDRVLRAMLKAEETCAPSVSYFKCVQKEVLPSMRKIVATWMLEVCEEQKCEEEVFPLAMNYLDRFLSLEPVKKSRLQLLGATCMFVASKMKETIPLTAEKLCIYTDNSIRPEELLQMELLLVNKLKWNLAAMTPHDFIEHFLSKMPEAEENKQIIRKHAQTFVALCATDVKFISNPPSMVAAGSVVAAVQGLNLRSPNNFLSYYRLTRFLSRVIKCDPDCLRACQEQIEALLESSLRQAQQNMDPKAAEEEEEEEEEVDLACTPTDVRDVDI
Outline: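 Caliper microfluidic mobility-shift assay tracking phosphorylation of 1 μM FL-34 peptide by 1 nM CDK4/CyclinD1 with 200 μM ATP in HEPES pH 7.5 buffer with 10 mM MgCl2. Reaction ran 3 h at room temperature, was stopped with EDTA, and IC50 came from a 4-parameter sigmoidal fit.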

[4] = tested on: phosphorylation of Retinoblastoma Protein (pRb Ser807/811 or Ser780) in T47D cells; test: Inhibition of phosphorylation of retinoblastoma protein (pRb) in T47D cell (ELISA); assay type: cell-based, human
Procedure: T47D breast cancer cells from American Type Culture Collection (ATCC, HTB-133) were plated at 40,000 cells/well in 96-well plates, and were incubated in RPMI 1640 medium (Gibco, 31800105) with 10% Fetal Bovine Serum (FBS, Biowest, FB-1058). Cells were then allowed to adhere overnight at 37° C., 5% CO2. The following day, compounds were titrated in a 3-fold dilution scheme, and the highest compound concentration tested was […]. After 24 hours incubation with compounds, cells were lysed in ice-cold lysis buffer containing phosphatase inhibitor cocktail and 1 mM PMSF. Cell lysates (50 μL/well) were then transferred to ELISA plates (pRb Ser807/811 ELISA kit, Cell Signaling, 13152 or pRb Ser780 ELISA kit, Cell Signaling, 13016)). Plates were incubated overnight at 4° C., with constant slow speed shaking. After incubation, plates were washed following manufacturer's recommendations, and then 100 μL reconstituted detection antibody was added to each well and incubated for 1 hour at 37° C. After incubation, plates were washed, and then 100 μL reconstituted HRP-linked secondary antibody was added to each well and incubated for 30 mins at 37° C. After incubation, plates were washed. Then, 100 μL TMB substrate was added to each well and incubated for 10 min at 37° C. or 30 min at 25° C. Finally, 100 μL of STOP solution was added to each well and mixed gently for a few seconds. Plates were read on the Envision plate reader (PerkinElmer, 2104-0010) using the 96-well […] mode. IC50 values were calculated using 4 parameter sigmoidal dose-response model of Xlfit5/GraphPad Prism 5 software.

[5] = target: T3, CDK6/CyclinD3 (Homo sapiens, UniProt Q00534); test: Assay for inhibition of CDK6/CyclinD3 (Caliper microfluidic kinase assay); assay type: biochemical
T3 construct: purchased Carna 04-107
T3 sequence (Q00534 whole entry): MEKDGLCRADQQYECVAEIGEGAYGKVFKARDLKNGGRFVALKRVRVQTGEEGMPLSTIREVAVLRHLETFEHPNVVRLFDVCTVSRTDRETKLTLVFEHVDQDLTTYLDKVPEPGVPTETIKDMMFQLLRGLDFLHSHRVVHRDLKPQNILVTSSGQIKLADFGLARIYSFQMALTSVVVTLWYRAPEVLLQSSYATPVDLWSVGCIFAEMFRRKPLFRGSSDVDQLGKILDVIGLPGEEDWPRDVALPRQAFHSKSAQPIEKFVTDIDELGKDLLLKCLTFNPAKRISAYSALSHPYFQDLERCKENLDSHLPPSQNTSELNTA
T3 sequence (P30281 whole entry partner): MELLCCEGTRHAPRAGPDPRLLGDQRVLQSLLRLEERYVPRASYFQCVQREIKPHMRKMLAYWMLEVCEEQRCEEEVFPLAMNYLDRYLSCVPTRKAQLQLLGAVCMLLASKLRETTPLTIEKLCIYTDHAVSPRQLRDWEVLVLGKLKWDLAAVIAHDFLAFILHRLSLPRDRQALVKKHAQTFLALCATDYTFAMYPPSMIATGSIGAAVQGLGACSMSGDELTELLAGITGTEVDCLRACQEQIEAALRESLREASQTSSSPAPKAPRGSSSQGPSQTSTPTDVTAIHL
Procedure: The CDK6 enzyme assay for IC50 determination was performed as follows. Microfluidic kinase detection technology (Caliper) was used to monitor the phosphorylation of peptide substrate by CDK6/CyclinD3. The total reaction volume is 15 μL containing buffer A (100 mM HEPES (pH 7.5), 0.1% BSA, 0.01% Triton X-100, 1 mM DTT, 10 mM MgCl2, 10 μM Sodium Orthovanadate, 10 μM Beta-Glycerophosphate), 300 μM ATP, 2 nM CDK6/CyclinD3 (Carna, 04-107), 1 μM FL-34 (5-FAM-[…]), and the test compound at appropriate dilutions in DMSO. All components were added to the 384-well plate (Corning, 4514), and incubated at Room Temperature for 3 hours. The reaction was terminated by addition of 15 μL Stop Buffer (180 mM HEPES (pH 7.5), 20 mM EDTA, Coating-3 reagent (PerkinElmer, 760050)). The plate was then loaded on Caliper EZ Reader (EZ Reader II, PerkinElmer, HD-4HYSG2772), and the reaction mixtures including substrate and product were sipped into the microfluidic chip for separation and detection. The IC50 values of the test compound were determined by fitting the inhibition curves by 4 parameter sigmoidal dose-response model using the Xlfit5/GraphPad Prism 5 software.

[6] = Homo sapiens, T47D, anti-proliferation, T47D cells
[7] = Homo sapiens, T47D, read-out: Phospho T47D Ser807 IC50, pRb Ser807 phosphorylation, T47D cells

| SMILES | IC50 ([1]; CDK2/CyclinE1, 100 μM ATP) | IC50 [2, 6] | IC50 ([3]; CDK4/CyclinD1, 200 μM ATP) | IC50 [4, 7] | IC50 ([5]; CDK6/CyclinD3, 300 μM ATP) | IC50 ([2]; anti-proliferation, T47D cells) | IC50 ([4]; read-out: Phospho T47D Ser807 IC50, pRb Ser807 phosphorylation, T47D cells) | IC50 ([2]; Homo sapiens, T47D) | IC50 ([4]; Homo sapiens, T47D, read-out: Phospho T47D Ser807 IC50) | IC50 ([1]; CDK2/CyclinE1) | IC50 ([3]; CDK4/CyclinD1) | IC50 ([5]; CDK6/CyclinD3) |
| --- | --- | --- | --- | --- | --- | --- | --- | --- | --- | --- | --- | --- |
| COc1nc(-c2nc(Nc3ccc(N4CCC(N(C)C)CC4=O)cn3)ncc2F)cc2c1nc(C)n2C(C)C (single isomer, unassigned) [Example 62-1, 4-(dimethylamino)-1-[6-[[5-fluoro-4-(1-isopropyl-4-methoxy-2-methyl-imidazo[4,5-c]pyridin-6-yl)pyrimidin-2-yl]amino]-3-pyridyl]piperidin-2-one] | > 1 µM | 0.1 to 0.5 µM | < 0.01 µM | 0.1 to 0.5 µM | 0.01 to 0.1 µM | – | – | – | – | – | – | – |
| COc1nc(-c2nc(Nc3ccc(N4CCC(N(C)C)CC4=O)cn3)ncc2F)cc2c1nc(C)n2C(C)C (single isomer, unassigned) [Example 62-2, 4-(dimethylamino)-1-[6-[[5-fluoro-4-(1-isopropyl-4-methoxy-2-methyl-imidazo[4,5-c]pyridin-6-yl)pyrimidin-2-yl]amino]-3-pyridyl]piperidin-2-one] | > 1 µM | – | < 0.01 µM | – | 0.01 to 0.1 µM | < 0.1 µM | < 0.1 µM | – | – | – | – | – |
| CNC1CCN(c2ccc(Nc3nccc(-c4ccn5ncc(C(C)C)c5c4)n3)nc2)C(=O)C1 (single isomer, unassigned) [Synthetic Example 205, 1-[6-[[4-(3-isopropylpyrazolo[1,5-a]pyridin-5-yl)pyrimidin-2-yl]amino]-3-pyridyl]-4-(methylamino)piperidin-2-one] | < 0.01 µM | < 0.1 µM | < 0.01 µM | < 0.1 µM | < 0.01 µM | – | – | – | – | – | – | – |
| CC(C)c1cnn2ccc(-c3ccnc(Nc4ccc(N5CCCNC5=O)cn4)n3)cc12 [Synthetic Example 1] | 0.1 to 1 µM | < 0.1 µM | < 0.01 µM | < 0.1 µM | 0.01 to 0.1 µM | – | – | – | – | – | – | – |
| CC(C)c1cnn2ccc(-c3nc(Nc4ccc(N5CCNCC5=O)cn4)ncc3F)cc12 [Synthetic Example 29] | 0.01 to 0.1 µM | < 0.1 µM | < 0.01 µM | < 0.1 µM | 0.01 to 0.1 µM | – | – | – | – | – | – | – |
| CC(C)c1cnn2ccc(-c3ccnc(Nc4ccc(N5CC(N(C)C)CC5=O)cn4)n3)cc12 (stereo not drawn) [Synthetic Example 39] | 0.01 to 0.1 µM | < 0.1 µM | < 0.01 µM | < 0.1 µM | 0.01 to 0.1 µM | – | – | – | – | – | – | – |
| CC(C)c1cnn2ccc(-c3ccnc(Nc4ccc(N5CCN(C6CNC6)CC5=O)cn4)n3)cc12 [Synthetic Example 40] | 0.01 to 0.1 µM | – | < 0.01 µM | – | 0.01 to 0.1 µM | – | – | < 0.1 µM | < 0.1 µM | – | – | – |
| CC(C)c1cnn2ccc(-c3nc(Nc4ccc(N5CCN(CCO)CCC5=O)cn4)ncc3F)cc12 [Synthetic Example 52] | 0.01 to 0.1 µM | – | < 0.01 µM | < 0.1 µM | 0.01 to 0.1 µM | – | – | – | – | – | – | – |
| COc1nc(-c2ccnc(Nc3ccc4c(n3)CCN(C(=O)CN(C)C)C4)n2)cc2c1ncn2C(C)C [Synthetic Example 140] | > 1 µM | – | < 0.01 µM | < 0.1 µM | 0.01 to 0.1 µM | – | – | – | – | – | – | – |
| CCN1CCN(Cc2ccc(Nc3ncc(F)c(-c4cc(C)n5ncc(C(C)C)c5c4)n3)nc2)CC1 [compound 5] | – | > 1 µM | 0.01 to 0.1 µM | > 1 µM | 0.1 to 1 µM | – | – | – | – | – | – | – |
| COc1nc(-c2ccnc(Nc3ccc(N4CCC(N5CCOCC5)CC4=O)cn3)n2)cc2c1ncn2C(C)C (stereo not drawn) [compound 100] | – | – | – | 0.1 to 0.5 µM | – | – | – | – | – | 0.1 to 1 µM | < 0.01 µM | 0.01 to 0.1 µM |
| COc1nc(-c2ccnc(Nc3ccc(N4CCNCC4=O)cc3F)n2)cc2c1ncn2C(C)C [compound 114] | 0.01 to 0.1 µM | – | < 0.01 µM | 0.1 to 0.5 µM | 0.01 to 0.1 µM | – | – | – | – | – | – | – |
| COc1nc(-c2ccnc(Nc3ccc(N4CCNCC4=O)nc3)n2)cc2c1ncn2C(C)C [compound 119] | 0.01 to 0.1 µM | – | < 0.01 µM | 0.1 to 0.5 µM | 0.01 to 0.1 µM | – | – | – | – | – | – | – |
| CCN1CCN(c2ccc(Nc3nccc(-c4cc5c(ncn5C(C)C)c(OC)n4)n3)nc2)C(=O)C1 [compound 134] | 0.1 to 1 µM | – | < 0.01 µM | < 0.1 µM | 0.01 to 0.1 µM | – | – | – | – | – | – | – |
| COc1nc(-c2nc(Nc3ccc(N4CCN(C5CCOCC5)CC4=O)cn3)ncc2F)cc2c1nc(C)n2C(C)C [compound 136] | > 1 µM | – | < 0.01 µM | 0.1 to 0.5 µM | 0.01 to 0.1 µM | – | – | – | – | – | – | – |
| COc1nc(-c2ccnc(Nc3ccc(N4CCN(C5COC5)CC4=O)cn3)n2)cc2c1ncn2C(C)C [compound 137] | 0.1 to 1 µM | – | < 0.01 µM | < 0.1 µM | 0.01 to 0.1 µM | – | – | – | – | – | – | – |
| CC(C)c1cnn2ccc(-c3ccnc(Nc4ccc(C(=O)N5CCC5)cc4)n3)cc12 [compound 169] | < 0.01 µM | – | < 0.01 µM | < 0.1 µM | 0.01 to 0.1 µM | – | – | – | – | – | – | – |
| CC(C)(C)c1cnn2ccc(-c3ccnc(Nc4ccc(N5CCCC(N)C5=O)cc4)n3)cc12 (stereo not drawn) [compound 218] | < 0.01 µM | – | < 0.01 µM | < 0.1 µM | < 0.01 µM | – | – | – | – | – | – | – |
| CCN1CCN(c2ccc(Nc3nccc(N4CCc5ncn(C(C)C)c5C4)n3)nc2)C(=O)C1 [compound 241] | 0.1 to 1 µM | 0.1 to 0.5 µM | 0.01 to 0.1 µM | < 0.1 µM | – | – | – | – | – | – | – | – |
| CC(C)n1cnc2c1CN(c1ccnc(Nc3ccc(N4CCC(N5CC(F)C5)CC4=O)cn3)n1)CC2 (stereo not drawn) [compound 243] | 0.01 to 0.1 µM | 0.5 to 1 µM | 0.01 to 0.1 µM | 0.1 to 0.5 µM | – | – | – | – | – | – | – | – |
| CN(C)C1CCCN(c2ccc(Nc3nccc(-c4cc(F)c5c(c4)C(C)(C)CO5)n3)nc2)C1=O (stereo not drawn) [compound 261] | > 1 µM | – | < 0.01 µM | < 0.1 µM | 0.01 to 0.1 µM | – | – | – | – | – | – | – |
| CC1(C)COc2c(F)cc(-c3ccnc(Nc4ccc(N5CCCNC5=O)cn4)n3)cc21 [compound 262] | 0.1 to 1 µM | < 0.1 µM | < 0.01 µM | < 0.1 µM | – | – | – | – | – | – | – | – |
| CC(C)n1cnc2c(F)nc(-c3ccnc(Nc4ccc(N5CCC(C)(N)CC5=O)cn4)n3)cc21 (stereo not drawn) [compound 271] | 0.01 to 0.1 µM | – | < 0.01 µM | < 0.1 µM | < 0.01 µM | – | – | – | – | – | – | – |
| CC(C)n1cnc2c(F)nc(-c3ccnc(Nc4ccc(N5CCCNC5=O)cn4)n3)cc21 [compound 275] | 0.1 to 1 µM | – | < 0.01 µM | < 0.1 µM | < 0.01 µM | – | – | – | – | – | – | – |
| CCN1CCN(c2ccc(Nc3nccc(-c4cc5c(ncn5C(C)C)c(F)n4)n3)nc2)CC1 [compound 289] | 0.1 to 1 µM | – | < 0.01 µM | < 0.1 µM | < 0.01 µM | – | – | – | – | – | – | – |
| COc1nc(-c2ccnc(Nc3ccc(N4CCC(C)(N)CC4=O)cn3)n2)cc2c1ncn2C(C)C (stereo not drawn) [compound 313] | – | – | – | < 0.1 µM | – | – | – | – | – | 0.1 to 1 µM | 0.01 to 0.1 µM | < 0.01 µM |

— patent US20220296595A1, “CDK INHIBITORS” (QILU REGOR THERAPEUTICS INC., priority 2019, published 2022)
